Measured values from patent US20220177485A1, “CAMPTOTHECIN DERIVATIVE, PREPARATION METHOD THEREFOR AND APPLICATION THEREOF” (MARINE BIOMEDICAL RESEARCH INSTITUTE OF QINGDAO CO., LTD., priority 2018, published 2022).
Read-outs that look alike come from different tables or passages of the source.

Legend:
[1] = test system: A549 cell non-small cell lung cancer cell line; experiment: growth inhibition of tumor cells in vitro, A549; assay type: cell-based, human
From the text: (§1) We tested compounds target a variety of tumor cell for the growth inhibition to show its antitumor activity by using the method of the field technicians known. Chooses the tumor cell lines include: A549 cell non-small cell lung cancer cell line (people), K562 cells (human chronic myeloid leukemia cells), NCI-H1975 cells (non-small cell lung adenocarcinoma cancer cell), MDA-MB-231 cells (human breast cancer cells) and HCT-116 cells (human colon cancer cells).

[2] = test system: K562 cells (human chronic myeloid leukemia cells); experiment: growth inhibition of tumor cells in vitro, K562; assay type: cell-based
From the text: as §1

[3] = target: fibroblast growth factor (FGF); experiment: macromolecular interaction on chip, FGF; assay type: binding; conditions: compound fixed on the chip; FGF 1 μM
Description: (§2) The experimental scheme: 1. Fixed the compounds on the chip:
(§3) Mobile phase were EGF (1 μM), FGF (1 μM), HSP90 (100 nM), FKBP12 (100 nM).
(§4) Detection whether small molecule compounds combined with the provided protein of heat shock protein (HSP90), epidermal growth factor (EGF) and fibroblast growth factor (FGF); and provide relevant data of combined dynamics.

[4] = target: heat shock protein (HSP90); experiment: macromolecular interaction on chip, HSP90; assay type: binding; conditions: compound fixed on the chip; HSP90 100 nM
Description: as §2, §3, §4

[5] = target: T1, epidermal growth factor (EGF) (Homo sapiens, UniProt P01133); experiment: macromolecular interaction on chip, EGF; assay type: binding; conditions: for KD EGF: compound fixed on the chip, EGF 1 μM
T1 construct: epidermal growth factor (EGF)
T1 sequence (P01133 971-1023 limits assumed, species assumed): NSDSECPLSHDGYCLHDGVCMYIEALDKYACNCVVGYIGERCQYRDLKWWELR
Description: as §2, §3, §4

[6] = Homo sapiens, A549, A549 cell line, read-out: IC50 A549
[7] = K562 cell line, read-out: IC50 K562
[8] = Homo sapiens, A549, read-out: IC50 A549, A549 cell line

Row | SMILES | melting point [°C] | IC50 [1, 6] [µM] | IC50 [2, 7] [µM] | KD FGF [3] | KD HSP90 [4] | KD EGF [5] | other results
1 | CC[C@@]1(O)C(=O)OCc2c1cc1n(c2=O)Cc2c-1nc1cc3c(cc1c2CCc1ccc(N2CCCCC2)cc1)OCO3 | > 250 | – | – | – | – | – | –
2 | CC[C@@]1(O)C(=O)OCc2c1cc1n(c2=O)Cc2c-1nc1cc3c(cc1c2CCc1cc(F)c(N2CCCC2)c(F)c1)OCO3 | > 250 | – | – | – | – | – | –
3 | CC[C@@]1(O)C(=O)OCc2c1cc1n(c2=O)Cc2c-1nc1cc3c(cc1c2/C=C/C=C/c1ccccc1)OCO3 [Compound 1, 20(S)-7-(styrene-butadiene-yl)-10,11-methylenedioxy-camptothecin] | 206 to 214 | 0.763 ± 0.00505 | 1.652 ± 0.0106 | No combination | No combination | No combination | –
4 | CC[C@@]1(O)C(=O)OCc2c1cc1n(c2=O)Cc2c-1nc1cc3c(cc1c2/C=C/C=C/c1ccc(OC)cc1)OCO3 [Compound 2] | – | 1.268 ± 0.00465 | 2.693 ± 0.00963 | No combination | No combination | No combination | –
5 | CC[C@@]1(O)C(=O)OCc2c1cc1n(c2=O)Cc2c-1nc1cc3c(cc1c2/C=C/c1ccc(F)cc1)OCO3 [Compound 3, 20(S)-7-(4-fluorostyryl)-10,11-methylenedioxy-camptothecin] | > 250 | – | 0.066 ± 0.00365 | No combination | No combination | can combine | Kd [5]: 0.0053 µM
6 | CC[C@@]1(O)C(=O)OCc2c1cc1n(c2=O)Cc2c-1nc1cc3c(cc1c2/C=C/c1cccc(F)c1)OCO3 [Compound 4, 20(S)-7-(3-fluorostyryl)-10,11-methylenedioxy-camptothecin] | > 250 | – | – | No combination | No combination | No combination | –
7 | CC[C@@]1(O)C(=O)OCc2c1cc1n(c2=O)Cc2c-1nc1cc3c(cc1c2/C=C/c1ccccc1F)OCO3 [Compound 5, 20(S)-7-(2-fluorostyryl)-10,11-methylenedioxy-camptothecin] | > 250 | – | – | No combination | No combination | No combination | –
8 | CC[C@@]1(O)C(=O)OCc2c1cc1n(c2=O)Cc2c-1nc1cc3c(cc1c2/C=C/c1ccc(F)c(F)c1)OCO3 [Compound 6] | – | 0.53 ± 0.0076 | 0.757 ± 0.00862 | can combine | No combination | No combination | Kd [3]: 0.00899 µM
9 | CC[C@@]1(O)C(=O)OCc2c1cc1n(c2=O)Cc2c-1nc1cc3c(cc1c2/C=C/c1cc(F)c(F)c(F)c1)OCO3 [Compound 7] | – | 1.904 ± 0.00864 | 1.772 ± 0.00968 | can combine | No combination | can combine | Kd [3]: 0.0536 µM; Kd [5]: 0.0515 µM
10 | CC[C@@]1(O)C(=O)OCc2c1cc1n(c2=O)Cc2c-1nc1cc3c(cc1c2CCc1ccc(N2CCOCC2)cc1)OCO3 [Compound 8, 20(S)-7-(4-(4-morpholino)phenethyl)-10,11-methylenedioxy-camptothecin] | – | – | – | No combination | No combination | No combination | –
11 | CC[C@@]1(O)C(=O)OCc2c1cc1n(c2=O)Cc2c-1nc1cc3c(cc1c2CCc1ccc(N2CCCC2)cc1)OCO3 [Compound 9, 20(S)-7-(4-(pyrrolidin-1-yl)phenethyl)-10,11-methylenedioxy-camptothecin] | 205 to 207 | 1.522 ± 0.0105 | 1.366 ± 0.0125 | No combination | No combination | No combination | –
12 | CC[C@@]1(O)C(=O)OCc2c1cc1n(c2=O)Cc2c-1nc1cc3c(cc1c2CCc1ccc(N2CCOCC2)c(F)c1)OCO3 [Compound 10, 20(S)-7-(3-fluoro-4-(4-morpholino)phenethyl)-10,11-methylenedioxy-camptothecin] | > 250 | 1.223 ± 0.00875 | 0.564 ± 0.00985 | No combination | No combination | No combination | –
13 | CC[C@@]1(O)C(=O)OCc2c1cc1n(c2=O)Cc2c-1nc1cc3c(cc1c2CCc1cccc(N2CCOCC2)c1)OCO3 [Compound 14] | 163 to 165 | 0.01 to 0.05 | 1.949 ± 0.0157 | No combination | No combination | No combination | IC50 ([1]; A549 cell line, read-out: IC50 A549): 0.019 ± 0.00347 µM
14 | CC[C@@]1(O)C(=O)OCc2c1cc1n(c2=O)Cc2c-1nc1cc3c(cc1c2CCc1ccccc1N1CCCC1)OCO3 [Compound 16, 20(S)-7-(2-(pyrrolidin-1-yl)phenethyl)-10,11-methylenedioxy-camptothecin] | 139 to 140 | – | 0.115 ± 0.0076 | – | – | – | –
15 | CC[C@@]1(O)C(=O)OCc2c1cc1n(c2=O)Cc2c-1nc1cc3c(cc1c2CCc1cc(F)c(N2CCOCC2)c(F)c1)OCO3 [Compound 18, 20(S)-7-(3,5-difluoro-4-(4-morpholino)phenethyl)-10,11-methylenedioxy-camptothecin] | 246 to 247 | – | 0.489 ± 0.00665 | – | – | – | –
16 | CC[C@@]1(O)C(=O)OCc2c1cc1n(c2=O)Cc2c-1nc1cc3c(cc1c2CCc1ccc(N2CCSCC2)cc1)OCO3 [Compound 20, 20(S)-7-(4-(4-thiomorpholino)phenethyl)-10,11-methylenedioxy-camptothecin] | 154 to 156 | – | 0.145 ± 0.00435 | – | – | – | –
17 | CC[C@@]1(O)C(=O)OCc2c1cc1n(c2=O)Cc2c-1nc1cc3c(cc1c2-c1ccc(F)cc1)OCO3 [Compound 32] | – | – | 0.963 ± 0.00761 | No combination | No combination | No combination | –
18 | CC[C@@]1(O)C(=O)OCc2c1cc1n(c2=O)Cc2c-1nc1cc3c(cc1c2-c1cc(C(F)(F)F)cc(C(F)(F)F)c1)OCO3 [Compound 33] | – | 0.174 ± 0.00862 | 0.702 ± 0.00887 | – | – | – | –
19 | CC[C@@]1(O)C(=O)OCc2c1cc1n(c2=O)Cc2c-1nc1cc3c(cc1c2-c1ccccc1)OCO3 [Compound 36] | – | 0.422 ± 0.0103 | 1.327 ± 0.00896 | – | – | – | –
20 | CC[C@@]1(O)C(=O)OCc2c1cc1n(c2=O)Cc2c-1nc1cc3c(cc1c2-c1ccc(C(C)(C)C)cc1)OCO3 [Compound 37] | – | – | – | – | – | – | IC50 [1, 8]: 0.387 ± 0.00375 µM; IC50 ([2]; K562, read-out: IC50 K562): 0.785 ± 0.00923 µM
21 | CC[C@@]1(O)C(=O)OCc2c1cc1n(c2=O)Cc2c-1nc1cc3c(cc1c2-c1ccc2c(c1)OCO2)OCO3 [Compound 38] | – | – | – | – | – | – | IC50 [1, 8]: 0.282 ± 0.00777 µM; IC50 ([2]; K562, read-out: IC50 K562): 0.202 ± 0.00732 µM
22 | CC[C@@]1(O)C(=O)OCc2c1cc1n(c2=O)Cc2c-1nc1cc3c(cc1c2-c1ccc(F)cc1F)OCO3 [Compound 40] | – | – | – | – | – | – | IC50 [1, 8]: 0.836 ± 0.00869 µM; IC50 ([2]; K562, read-out: IC50 K562): 1.168 ± 0.00969 µM
23 | CC[C@@]1(O)C(=O)OCc2c1cc1n(c2=O)Cc2c-1nc1cc3c(cc1c2-c1ccccc1F)OCO3 [Compound 41] | – | – | – | – | – | – | IC50 ([2]; K562, read-out: IC50 K562): 1.037 ± 0.0103 µM
24 | CC[C@@]1(O)C(=O)OCc2c1cc1n(c2=O)Cc2c-1nc1cc3c(cc1c2-c1ccc(F)c(F)c1)OCO3 [Compound 42] | – | – | 0.181 ± 0.00855 | – | – | – | –
25 | CC[C@@]1(O)C(=O)OCc2c1cc1n(c2=O)Cc2c-1nc1cc3c(cc1c2N1CCOCC1)OCO3 [Compound 43, 20(S)-7-morpholino-10,11-methylenedioxy-camptothecin] | > 250 | – | – | – | – | – | IC50 ([2]; K562, read-out: IC50 K562): 0.837 ± 0.00944 µM
26 | CC[C@@]1(O)C(=O)OCc2c1cc1n(c2=O)Cc2c-1nc1cc3c(cc1c2CCN1CCCCC1)OCO3 [Compound 52, 20(S)-7-(2-(piperidin-1-yl)ethyl)-10,11-methylenedioxy-camptothecin] | – | – | – | can combine | No combination | No combination | Kd [3]: 0.00715 µM
